Consider 13 compounds from patent publication EP0442663A1, “Improvements in chemical compounds” (priority 1990, dated 1991).

“And” between values parts separate entries of the source, which are not always exact repeats. Identical values can stand only once.

Data set [1] concerns MT-4 cells. Kind of data set: Cytotoxicity by MTT method. The format is cell-based. As to conditions: 5 days. As for the experimental part: (§1) The compounds of the invention were tested in a screen by the MTT method (J.Virol. Methods […]: 309-321 [1988]). MT-4 cells (2.5 x 10⁴ / well) were challenged with HIV-1 (HTLV-IIIB) or HIV-2 (LAV-2 ROD) at a concentration of 100 CCID₅₀ and incubated in the presence of various concentrations of the test compounds, which were added immediately after challenge with the virus. After 5 days culture at 37°C in a CO₂ incubator, the number of viable cells was assessed by the MTT (tetrazolium) method. Antiviral activity and cytotoxicity of the compounds are expressed in the table below as ED₅₀ (ug/ml) and CD₅₀ (ug/ml), respectively. The potential therapeutic usefulness was assessed by calculating a Selectivity Index (SI) corresponding to the ratio of CD₅₀ to ED₅₀. A control test was performed using the known anti-HIV treatment AZT, and a comparison compound HPA-23 was also run through the screen as detailed below. In the table below, the compounds screened were […]
(Tetrazolium assays rely on reduction of a dye to a coloured formazan, in cell work by metabolically active cells.)

For data set [2], the system named is HIV-1 (HTLV-IIIB). As to the kind of experiment: microbe, parasite or virus in culture. The settings on record: for ED50: antiviral activity, MT-4 cells challenged with HIV-1 (HTLV-IIIB) at 100 CCID50, 5 days. The class given is cell-based. As to the method:
as §1

Data set [3] deals with HIV-2 (LAV-2 ROD). Kind of data set: MTT method anti-HIV screen in MT-4 cells, HIV-2 challenge. The class given is cell-based. The settings on record: antiviral activity, MT-4 cells challenged with HIV-2 (LAV-2 ROD) at 100 CCID50, 5 days. As for the experimental part: as §1
The conditions of data set [4]: in vivo; cited from earlier work.
Data set [5] concerns HIV. As to conditions: reported in Chemical and Engineering News, December 1986; cited from earlier work.
For data set [6], the system named is herpes virus. The settings on record: from JP 64-38,022; cited from earlier work.
Data set [7] in a line: Cytotoxicity by MTT method. The format is cell-based. The settings on record: human, MT-4 cells, 5 days, read-out: CD50. As to the method: as §1
Setting [8] is: value printed in the HIV-1 line.
Setting [9] is: value printed in the HIV-2 line.
[10] abbreviates: value printed in the HIV-1 line, 7200 min.
Where [11] appears, read: value printed in the HIV-2 line, 7200 min.

As to K10[P2W18Zn4(H2O)2O68] [B], the results for the CD50 in data set [1] (setting [8]) and in data set [1] (setting [9]) were 466.3 µg/mL and 441.9 µg/mL, respectively. Further, the results for the ED50 in data set [2] and in data set [3] were 0.71 µg/mL and 18.03 µg/mL, respectively.

For (NH₄)₁₂[H₂P₂W₁₂O₄₈].16H₂O [Example 7], the CD50 is >500.0 µg/mL and 304.0 µg/mL in data set [1] (setting [10]); 346.0 µg/mL and 286.0 µg/mL in data set [1] (setting [11]).

Take silicotungstate acid, H₄SiW₁₂O₄₀: the “toxicity in higher animals” value in data set [4] is on record as “abandoned because of its toxicity in higher animals”. In addition, in data set [5], the “activity against HIV” value was “has activity against HIV”.

Consider Na7[PrW10O35] [C], for which the CD50 in data set [1] (setting [8]) is 761.8 µg/mL; in data set [1] (setting [9]), 221.7 µg/mL. Besides, the ED50 in data set [2] was found to be 1.86 µg/mL; in data set [3], 2.70 µg/mL.

As to K₅BW₁₂O₄₀, the “activity against herpes virus” value in data set [6] is reported as “have activity against herpes virus”.

Take Na12[P4W14O58] [F]: the CD50 in data set [1] (setting [8]) came out at 655.8 µg/mL; in data set [1] (setting [9]), 682.8 µg/mL. For the same compound, the ED50 came out at 4.82 µg/mL in data set [2] and 13.26 µg/mL in data set [3].

K9Li[P2W17O62] [E]: the CD50 in data set [1] (setting [8]) is 502.9 µg/mL; in data set [1] (setting [9]), 429.7 µg/mL. Moreover, the ED50 in data set [2] came to 2.92 µg/mL; in data set [3], 7.28 µg/mL.

Take `Cc1cn([C@H]2C[C@H](N=[N+]=[N-])[C@@H](CO)O2)c(=O)[nH]c1=O` [AZT, azidothymidione, reference compound]: the CC50 at 120 h in data set [7] is above 1 µg/mL. Also, in data set [2] (Human immunodeficiency virus 1, IIIB, MT4, 120 h, read-out: ED50), the EC50 was below 8 ng/mL. For the same compound, in data set [2] (Selectivity Index, ratio of CD50 to ED50, HIV-1, 7200 min), the SI is given as above 125.

As to K12[H2P2W12O48] [A], the results for the CD50 in data set [1] (setting [8]) and in data set [1] (setting [9]) were 721.0 µg/mL and 675.9 µg/mL, respectively. The results for the ED50 in data set [2] and in data set [3] were 0.089 µg/mL and 0.153 µg/mL, respectively.

With “(NH₄)₁₇H[NaSb₉W₂₁O₈₆] [HPA 23, reference compound]”, the CD50 is 7.4 µg/mL in data set [1] (setting [8]) and 2.4 µg/mL in data set [1] (setting [9]). Besides, the values for the ED50 in data set [2] and in data set [3] were 2.8 µg/mL and above 4 µg/mL, respectively.

As to K₇PW₁₀Ti₂O₄₀, in data set [6], the “activity against herpes virus” value is “have activity against herpes virus”.

Regarding K10[P2W18Co4(H2O)2O68], the CD50 is 84.8 µg/mL in data set [1] (setting [8]) and 81.6 µg/mL in data set [1] (setting [9]). Besides, the figures for the ED50 in data set [2] and in data set [3] were 1.47 µg/mL and 12.26 µg/mL, respectively.

“Reduced form of K₆[P₂W₁₂Mo₆O₆₂] [Example 12]”: the CD50 in data set [1] (setting [10]) was 234.0 µg/mL and 300.0 µg/mL; in data set [1] (setting [11]), 315.0 µg/mL and 306.0 µg/mL. The ED50 in data set [2] (7200 min) was 4.1 µg/mL and 5.8 µg/mL; in data set [3] (7200 min), 1.8 µg/mL and 1.4 µg/mL.
